“And” between values parts separate entries of the source, which are not always exact repeats. Identical values can stand only once.
Legend:
[1] = tested on: lung cancer in K-ras^LA2 model mice; settings: Cell Research 2013, 23:898-914; cited from earlier work
[2] = tested on: differentiation of monocytes into M2 macrophages; settings: by inhibiting production of ROS; Cell Research 2013, 23:898-914; cited from earlier work
[3] = Accelerated stability test for bulk drug; format: physicochemical; settings: for Appearance / Content / Related substance: bulk drug, 40° C.±2° C., RH 75%±5%
Method: (§1) An accelerated stability test for bulk drug was carried out directly from the crystal powder. An accelerated stability test for formulation was carried out on tablets.

[4] = Pharmacokinetic evaluation of 2-BHA of form A in rats by intragastric administration; format: in vivo, SD rats; settings: 100 mg/kg intragastric, individual rats 1♂-6♀;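 also: plasma concentration in ng/mL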
Method: SD rats, half male and half female, fasted overnight, 6 rats/group, were given 2-tert-butyl-4-methoxyphenol suspended in Tween 80 (2-BHA of form A prepared by Example 4) by intragastric administration, the dose being 100 mg/kg body weight. […]

[5] = Accelerated stability test for formulation (tablets); format: physicochemical; settings: conclusion from Tables 3 and 4
Method: as §1
Preparation process of formulation: form A of 2-tert-butyl-4-methoxyphenol (2-BHA) (form A of 2-BHA prepared in Example 4), microcrystalline cellulose, lactose and other auxiliary materials respectively were screened through 100 mesh, respectively for use. The prescription amount of form A of 2-tert-butyl-4-methoxyphenol, microcrystalline cellulose, lactose and other auxiliary materials were fully mixed according to the equal volume addition method. The above mixture was added to an aqueous solution of 2-3% polyvinylpyrrolidone under stirring, to obtain a soft material, which was screened through a 20-mesh sieve. The tablet weight regulator was adjusted to make the tablet weight being 250±10 mg, the hardness being 60-80 N, and then the tablet was compressed. After screening for dissolution, homogeneity and reproducibility and the like, the prescription was determined and 3 batches of samples were prepared.

[6] = Plasma concentration after intragastric administration in mice; format: in vivo
[7] = tested on: M2 polarization of macrophages; settings: CN 201610037849.5; cited from earlier work
[8] = Comparative study of antioxidant activity, 2-BHA vs 3-BHA; settings: ratio to 3-BHA
Text: (§2) However, the existing commercial BHA products are all mixtures of 2-tert-butyl-4-methoxyphenol (2-BHA) and 3-tert-butyl-4-methoxyphenol (3-BHA), with a content ratio of approximately 9:1-50:1. The inventors comparatively studied the antioxidant activities and macrophage polarization regulation activities of 2-tert-butyl-4-methoxyphenol and 3-tert-butyl-4-methoxyphenol. […] Therefore, the development of 2-tert-butyl-4-methoxyphenol as a medicine still needs to improve the purity.

mice = experiment: Toxicology experiments in mice; format: in vivo
Method: (§3) At the same time, it was found through drug metabolism experiments that the in vivo half-life of BHA was very short, only 30-60 minutes. […] Therefore, combining with the research results of literature on the metabolites of 2-tert-butyl-4-methoxyphenol (with DNA damaging effects, Food and Chemical Toxicology 1999, 37: 1027-1038), it can be inferred that 2-tert-butyl-4-methoxyphenol itself has an anti-tumor effect, and the interaction of its metabolite tert-butylhydroquinone (TBHQ) with DNA may be the cause of its side effects. BHA has the potential to be developed into a drug.

macrophage polarization = experiment: Comparative study of macrophage polarization regulation activity, 2-BHA vs 3-BHA; format: cell-based; settings: ratio to 3-BHA
Text: as §2

[9] = Drug metabolism experiments (in vivo half-life)
Method: as §3

[10] = tested on: lung cancer and breast cancer; settings: mouse models with lung cancer and breast cancer; CN 201610037849.5; cited from earlier work
[11] = early studies, literature; cited from earlier work
[12] = 600 mg/kg administration in mice
[13] = 1100 mg/kg administration in mice

CC(=O)N[C@@H](CS)C(=O)O [NAC]
effect on occurrence of lung cancer [1]: inhibiting the occurrence of lung cancer
effect on differentiation of monocytes into M2 macrophages [2]: inhibit the differentiation of monocytes into M2 macrophages

COc1ccc(O)c(C(C)(C)C)c1 [2-BHA of form A, 2-tert-butyl-4-methoxyphenol]
Appearance ([3]; 0 month, listed as 20160808): white
Content ([3]; 0 month, listed as 20160808): 99.5%
Related substance ([3]; 0 month, listed as 20160808): 0.34%
Appearance ([3]; 0 month, listed as 20160904): white
Content ([3]; 0 month, listed as 20160904): 99.8%
Related substance ([3]; 0 month, listed as 20160904): 0.14%
Appearance ([3]; 0 month, listed as 20160908): white
Content ([3]; 0 month, listed as 20160908): 99.6%
Related substance ([3]; 0 month, listed as 20160908): 0.34%
Appearance ([3]; 1 month, listed as 20160808): white
Content ([3]; 1 month, listed as 20160808): 99.7%
Related substance ([3]; 1 month, listed as 20160808): 0.22%
Appearance ([3]; 1 month, listed as 20160904): white
Content ([3]; 1 month, listed as 20160904): 99.7%
Related substance ([3]; 1 month, listed as 20160904): 0.21%
Appearance ([3]; 1 month, listed as 20160908): white
Content ([3]; 1 month, listed as 20160908): 99.6%
Related substance ([3]; 1 month, listed as 20160908): 0.31%
Appearance ([3]; 2 month, listed as 20160808): white
Content ([3]; 2 month, listed as 20160808): 99.4%
Related substance ([3]; 2 month, listed as 20160808): 0.19%
Appearance ([3]; 2 month, listed as 20160904): white
Content ([3]; 2 month, listed as 20160904): 99.3%
Related substance ([3]; 2 month, listed as 20160904): 0.39%
Appearance ([3]; 2 month, listed as 20160908): white
Content ([3]; 2 month, listed as 20160908): 99.5%
Related substance ([3]; 2 month, listed as 20160908): 0.29%
Appearance ([3]; 3 month, listed as 20160808): white
Content ([3]; 3 month, listed as 20160808): 99.5%
Related substance ([3]; 3 month, listed as 20160808): 0.35%
Appearance ([3]; 3 month, listed as 20160904): white
Content ([3]; 3 month, listed as 20160904): 99.3%
Related substance ([3]; 3 month, listed as 20160904): 0.35%
Appearance ([3]; 3 month, listed as 20160908): white
Content ([3]; 3 month, listed as 20160908): 99.6%
Related substance ([3]; 3 month, listed as 20160908): 0.25%
physical and chemical stability compared with commercially available BHA ([3]; fluidity, agglomeration, oxidation and colour change in the environment): better physical and chemical stability than commercially available BHA
plasma concentration ([4]; 5 min after administration, female rats): 80.026 ng/mL and 165.939 ng/mL and 77.996 ng/mL
plasma concentration ([4]; 5 min after administration, male rats): 159.617 ng/mL and 125.112 ng/mL and 147.531 ng/mL
plasma concentration ([4]; 30 min, female rats): 157.878 ng/mL and 371.466 ng/mL and 240.870 ng/mL
plasma concentration ([4]; 30 min, male rats): 694.651 ng/mL and 489.006 ng/mL and 359.028 ng/mL
plasma concentration ([4]; 1 h, female rats): 504.084 ng/mL and 603.120 ng/mL and 643.208 ng/mL
plasma concentration ([4]; 1 h, male rats): 560.980 ng/mL and 570.039 ng/mL
plasma concentration ([4]; 2 h, female rats): 687.296 ng/mL and 410.399 ng/mL and 199.206 ng/mL
plasma concentration ([4]; 2 h, male rats): 267.167 ng/mL and 267.234 ng/mL and 312.997 ng/mL
plasma concentration ([4]; 4 h, female rats): 283.840 ng/mL and 205.532 ng/mL and 146.191 ng/mL
plasma concentration ([4]; 4 h, male rats): 192.535 ng/mL and 63.401 ng/mL and 86.609 ng/mL
plasma concentration ([4]; 8 h, female rats): 78.447 ng/mL and 42.984 ng/mL and 121.700 ng/mL
plasma concentration ([4]; 8 h, male rats): 117.919 ng/mL and 27.328 ng/mL and 192.532 ng/mL
plasma concentration ([4]; 24 h, BLLOQ = below the detection limit, female rats): BLLOQ
plasma concentration ([4]; 24 h, BLLOQ = below the detection limit, male rats): BLLOQ
concentration at 1 h ([4]; both sexes, SD, rat, plasma, oral, 100 mg/kg, 1 h): 881 ng/mL
stability during the preparation process [5]: better stability
correlation of maximum plasma concentration and AUC with the administration dose [6]: better correlation with the administration dose
individual differences in plasma concentration [6]: small individual differences in plasma concentration

COc1ccc(O)c(C(C)(C)C)c1 [2-tert-butyl-4-methoxyphenol]
Appearance ([3]; 0 month): off-white
Content ([3]; 0 month): 98.0%
Related substance ([3]; 0 month): 1.8%
Appearance ([3]; 1 month): light yellowish
Content ([3]; 1 month): 95.1%
Related substance ([3]; 1 month): 3.9%
Appearance ([3]; 2 month): light yellowish +
Content ([3]; 2 month): 92.1%
Related substance ([3]; 2 month): 8.8%
Appearance ([3]; 3 month): light yellowish red
Content ([3]; 3 month): 90.2%
Related substance ([3]; 3 month): 9.3%

COc1ccc(O)c(C(C)(C)C)c1 [BHA, 2-tert-butyl-4-methoxyphenol]
effect on M2 polarization of macrophages [7]: inhibiting the M2 polarization of macrophages
antioxidant capacity relative to 3-tert-butyl-4-methoxyphenol [8]: 2-3 times
recovery from central effect (mice; [12]): recovered after half an hour
toxic effect seen (mice; [12]): only part of the “hangover”-like central effect could be seen
lethality (mice; [13]): half of the mice were lethal
time until toxic reaction symptoms disappeared in the surviving mice (mice; [13]): 30 to 60 min
toxic effect after long-term administration (mice; long-term low-dose administrations in mice for 2 years): no toxic effect
effect on occurrence of lung cancer [1]: inhibiting the occurrence of lung cancer
effect on differentiation of monocytes into M2 macrophages [2]: inhibit the differentiation of monocytes into M2 macrophages
macrophage polarization regulation activity relative to 3-tert-butyl-4-methoxyphenol (macrophage polarization): 5-100 times
half-life [9]: 30 to 60 min
anti-tumor effect [10]: anti-tumor proliferation and metastasis effects
carcinogenic effects [11]: has carcinogenic effects

COc1cc(C(C)=O)ccc1O [Apocynin]
effect on occurrence of lung cancer [1]: inhibiting the occurrence of lung cancer
effect on differentiation of monocytes into M2 macrophages [2]: inhibit the differentiation of monocytes into M2 macrophages

CC1(C)CCCC(C)(C)N1[O] [TEMPO]
effect on occurrence of lung cancer [1]: inhibiting the occurrence of lung cancer
effect on differentiation of monocytes into M2 macrophages [2]: inhibit the differentiation of monocytes into M2 macrophages

— US11655201B2, “Method for preparing 2-tert-butyl-4-methoxyphenol and new crystal form thereof” (BIOMEDICAL ANALYSIS CENTER, ACADEMY OF MILITARY MEDICAL …, priority 2017, dated 2023)
